What was measured:
Type in all cases: cell-based, human
[1] = test system: sNF96.2 cells; test: Hoechst cell death viability assay, sNF96.2; conditions: sNF96.2 MPNST cells, up to 3 days, 100 μM to 0.039 μM, Hoechst 33258
Description: Cells were plated at 2,500 cells/well in 96-well plates and allowed to adhere overnight. Medium was removed and replaced with media containing compound starting at 100 μM, followed by 2-fold serial dilutions to generate a 10-point range of concentrations normalized with DMSO; one row was treated with DMSO as a control. Cells were incubated for the indicated timepoints. Upon collection, media was removed, cells were rinsed with PBS, and stored at −80° C. until all plates were collected. To process cells, plates were thawed with PBS, incubated with 1× saline-sodium citrate (SSC) buffer with 0.02% sodium dodecyl sulfate (SDS) for 1 hour at 37° C., followed by staining with 1 μg/mL Hoechst 33258 (Pierce). […] using a Spectramax M2 at an excitation of 355 nm and an emission of 460 nm, and absorbance was normalized to DMSO. Each experiment was repeated 2-3 times with 4 technical replicates per experiment.

[2] = test system: p62; test: Western immunoblotting of autophagy marker p62; conditions: U87-MG, 12 h treatment +/- 12 h HCQ
Description: (§1) U87-MG cells were plated at 500,000 cells/well in 6-well plates and allowed to adhere overnight (Falcon). Medium was removed and replaced with fresh medium containing drugs or compounds for the indicated timepoints. Cells were collected after treatment by washing with PBS, harvested with trypsin plus agitation to detach cells, pelleted in a centrifuge and resuspended in PBS to wash. Cells were transferred to 1.5 mL microcentrifuge tubes, pelleted, and resuspended in RIPA lysis buffer (50 mM Tris pH 8.0, 150 mM NaCl, 1% nonidet P40, 0.5% sodium deoxycholate, and 0.05% SDS) containing 1 mM NaVO4, 1 mM NaF, 1 mM phenylmethylsulfonyl fluoride, 0.1 μg/mL antipain, 1 μM aprotinin, 100 μM benzamidine HCl, 0.1 μg/mL leupeptin, 0.1 μg/mL pepstatin, and 0.1 μg/mL soybean trypsin inhibitor. Protein was quantified using a BCA assay kit (Pierce). 50 μg of protein was prepared in 1× Laemmli sample buffer (50 mM Tris pH 6.8, 0.02% w/v bromophenol blue, 2% w/v SDS, 10% v/v glycerol, 1% v/v beta-mercaptoethanol, 12.5 mM EDTA) and separated by SDS-PAGE on a 4-15% polyacrylamide gradient gel (Bio-Rad). […]

[3] = test system: BNIP3L/Nix; test: qPCR of BNIP3L/Nix transcript; conditions: U87-MG
[4] = test system: U87-MG cells; test: β-Galactosidase senescence assay; conditions: 2 μM, 72 h
Description: U87-MG cells were plated at 100,000 cells/well and allowed to adhere overnight. Medium was removed and replaced with medium containing DMSO, 2 μM Y102, or 100 nM Doxorubicin for a total of 72 hours. Cells were collected and stained for β-galactosidase using the Senescence β-Galactosidase Staining Kit (Cell Signaling). 100 cells were counted per condition; graph represents results from triplicate experiments.

[5] = test system: 8-hydroxyguanosine (8-OHG); test: Immunofluorescence staining for oxidative stress marker 8-OHG; conditions: U87-MG, 2 μM, 24 h
Description: U87-MG cells were plated at a concentration of 50,000 cells/well onto precoated poly-D-lysine (PDL) coverslips (Neuvitro) in 24-well plates (Falcon) and allowed to adhere overnight. Medium was removed and replaced with treatment-laced media normalized to DMSO, and cells were treated for the indicated timepoints. At the time of collection, cells were washed with PBS and fixed with 4% paraformaldehyde without methanol (EMS) or 100% methanol (Fischer). Coverslips were washed with Tween20-containing PBS (PBST; Fischer). Following permeabilization with 0.5% Triton X-100 in PBS (Fischer), coverslips were blocked for 1 h at room temperature in IF Buffer (0.05% azide, 0.2% Triton X-100, 2% Normal Goat Serum or, for 8-OHG, Normal Donkey Serum). The following primary antibodies were used for 1 hour at room temperature unless specified: AlexaFluor 488 pre-conjugated anti-γ-H2AX (N1-431) mouse monoclonal (30 minutes; BD Biosciences), anti-cleaved caspase 3 (Asp175) rabbit polyclonal (Cell Signaling), anti-SQSTM1/p62 (D-3) mouse monoclonal (Santa Cruz), anti-8-Hydroxyguanosine goat polyclonal (1:200; Millipore), anti-LAMP1 (D4O1S) mouse monoclonal (O/N at 4° C.; Cell Signaling), anti-BNIP3L/Nix (D4R4B) rabbit monoclonal (O/N at 4° C.; Cell Signaling), anti-FLAG (M2) mouse monoclonal (2 hours at 37° C.; Sigma-Aldrich). […]

[6] = test system: BNIP3L/Nix; test: Western immunoblotting of BNIP3L/Nix; conditions: U87-MG, 2 μM, 24 h, 20 μM QVD pre-treatment
Description: as §1

[7] = test system: LC3-II; test: Western immunoblotting of autophagy marker LC3-I/II; conditions: U87-MG, 12 h treatment +/- 12 h HCQ co-treatment, total 24 h
Description: as §1

`Cn1cnnc1S/C=C/C(=O)c1ccc(F)cc1` [Y102] was tested, and the “sensitivity of NF1-deficient cell line to treatment” value [1] was “sensitive”, the “p62 expression (western immunoblotting)” value [2] was “increased” and the “BNIP3L/Nix RNA levels versus DMSO” value [3] was “little difference”. The “senescence (senescence-associated β-galactosidase)” value [4] was “no indication”, the “8-OHG compared to DMSO” value [5] was “increase” and the “localization of 8-OHG oxidative stress-induced damage” value [5] was “both nuclear and mitochondrial DNA”. For the same compound, the “BNIP3L/Nix protein levels versus DMSO” value [6] was “little difference” and the “LC3-II accumulation (western immunoblotting)” value [7] was “did not result in LC3-II accumulation”.

— patent US20220326218A1, “COMPOSITION AND METHOD FOR INHIBITING BORC COMPLEX TO TREAT CANCERS WITH NF1 DEFICIENCY AND DYSREGULATED RAS SIGNALING” (THE TRUSTEES OF DARTMOUTH COLLEGE, priority 2019, published 2022)
